“Also recorded” adds a separate entry of the source.
Assay: Adverse events (treatment-related and all-cause) and dose-limiting toxicities, NCI CTCAE version 4.0
Settings: for Patients with treatment-related grade 3+ AEs: seven patients
[1] = Group 2, all-cause adverse events, Missing Categories
[2] = Group 2, all-cause adverse events, Skin and subcutaneous tissue disorders
[3] = Group 2, all-cause adverse events, Vascular disorders
[4] = group 1, 37 mg TP-0903 + decitabine
[5] = group 1, TP-0903 37 mg/day + decitabine, n = 15
[6] = group 2, 25 mg TP-0903 + decitabine
[7] = group 2, TP-0903 25 mg/day + decitabine, n = 12
[8] = overall, TP-0903 + decitabine, n = 27

Protocol: The phase 1b portion of the study used a standard 3 + 3 dose-escalation design with a starting dose level 1 (DL1) of 37 mg oral daily TP-0903 (Supplementary Table S2) based on experience with 50 mg oral daily as a single agent in patients with solid tumors ([25]). Dose-limiting toxicities (DLT) were evaluated to establish the dose brought forward for an expansion cohort (phase 2). Seven patients were enrolled in the phase 1b study, which was completed in January 2021 with the decision to move forward with an expansion cohort of 37 mg oral daily. Across the phase 1b and phase 2 studies, 15 patients were enrolled and started on 37 mg TP-0903 oral daily on days 1 to 21 (group 1). […] One additional patient was enrolled at this time but was inadvertently started on 25 mg TP-0903 oral daily on days 1 to 21. […] In May 2021, an amendment was approved to allow enrollment of a new group 2 at 25mg oral daily on days 1 to 21 of TP-0903 (DL-1) in stage 2 of the phase 2 study.
Clinical response was assessed according to the modified 2017 European LeukemiaNet AML criteria ([26]). The primary endpoint was achievement of CR within six cycles of therapy. Secondary endpoints included toxicity, duration of response, OS, and the proportion of eligible patients who effectively transitioned to allogeneic stem cell transplantation. Exploratory endpoints included pharmacokinetics (PK), correlative genetic, and biochemical data; correlations between morphologic remission, spectral flow cytometry, and mutational remission; and duration of remission or survival. […] Adverse events (AE) were graded according to the NCI Common Terminology Criteria for Adverse Events version 4.0 ([27]).

CN1CCN(Cc2ccc(Nc3ncc(Cl)c(Nc4ccccc4S(=O)(=O)N(C)C)n3)cc2)CC1.O=C(O)C(O)C(O)C(=O)O.O=C(O)C(O)C(O)C(=O)O [TP-0903, 2-(5-chloro-2-(4-((4-methylpiperazin-1-yl)methyl)phenylamino)pyrimidin-4-yl)amino-N,N-dimethylbenzene-1-sulfonamide di-tartrate salt]
Hypotension (intermittent), All [1]: 1 (8.3) | Hypotension (intermittent), Grade 1 2 [1]: 1 (8.3) | Hypotension (intermittent), Grade 3+ [1]: 0 (0) | INR - Increased, All [1]: 0 (0) | INR - Increased, Grade 1 2 [1]: 0 (0) | INR - Increased, Grade 3+ [1]: 0 (0) | Inflammation (bilateral knee), All [1]: 1 (8.3) | Inflammation (bilateral knee), Grade 1 2 [1]: 1 (8.3) | Inflammation (bilateral knee), Grade 3+ [1]: 0 (0) | Itching (intermittent), All [1]: 1 (8.3) | Itching (intermittent), Grade 1 2 [1]: 1 (8.3) | Itching (intermittent), Grade 3+ [1]: 0 (0) | Microvascular ischemic disease, All [1]: 1 (8.3) | Microvascular ischemic disease, Grade 1 2 [1]: 1 (8.3) | Microvascular ischemic disease, Grade 3+ [1]: 0 (0) | Pain (leg), All [1]: 1 (8.3) | Pain (leg), Grade 1 2 [1]: 1 (8.3) | Pain (leg), Grade 3+ [1]: 0 (0) | Retinal Detachment, All [1]: 0 (0) | Retinal Detachment, Grade 1 2 [1]: 0 (0) | Retinal Detachment, Grade 3+ [1]: 0 (0) | Steroid-induced hyperglycemia, All [1]: 1 (8.3) | Steroid-induced hyperglycemia, Grade 1 2 [1]: 1 (8.3) | Steroid-induced hyperglycemia, Grade 3+ [1]: 0 (0) | Symptomatic anemia, All [1]: 1 (8.3) | Symptomatic anemia, Grade 1 2 [1]: 0 (0) | Symptomatic anemia, Grade 3+ [1]: 1 (8.3) | lung fullness, All [1]: 0 (0) | lung fullness, Grade 1 2 [1]: 0 (0) | lung fullness, Grade 3+ [1]: 0 (0) | neuropathy (BLE), All [1]: 1 (8.3) | neuropathy (BLE), Grade 1 2 [1]: 1 (8.3) | neuropathy (BLE), Grade 3+ [1]: 0 (0) | pericarditis (intermittent), All [1]: 1 (8.3) | pericarditis (intermittent), Grade 1 2 [1]: 1 (8.3) | pericarditis (intermittent), Grade 3+ [1]: 0 (0) | Dry skin, All [2]: 0 (0) | Dry skin, Grade 1 2 [2]: 0 (0) | Dry skin, Grade 3+ [2]: 0 (0) | Ecchymosis, All [2]: 4 (33.3) | Ecchymosis, Grade 1 2 [2]: 4 (33.3) | Ecchymosis, Grade 3+ [2]: 0 (0) | Erythema nodosum, All [2]: 1 (8.3) | Erythema nodosum, Grade 1 2 [2]: 1 (8.3) | Erythema nodosum, Grade 3+ [2]: 0 (0) | Erythema, All [2]: 0 (0) | Erythema, Grade 1 2 [2]: 0 (0) | Erythema, Grade 3+ [2]: 0 (0) | Hyperhidrosis, All [2]: 1 (8.3) | Hyperhidrosis, Grade 1 2 [2]: 1 (8.3) | Hyperhidrosis, Grade 3+ [2]: 0 (0) | Nail discolouration, All [2]: 0 (0) | Nail discolouration, Grade 1 2 [2]: 0 (0) | Nail discolouration, Grade 3+ [2]: 0 (0) | Petechiae, All [2]: 3 (25) | Petechiae, Grade 1 2 [2]: 3 (25) | Petechiae, Grade 3+ [2]: 0 (0) | Photosensitivity reaction, All [2]: 0 (0) | Photosensitivity reaction, Grade 1 2 [2]: 0 (0) | Photosensitivity reaction, Grade 3+ [2]: 0 (0) | Pruritus, All [2]: 0 (0) | Pruritus, Grade 1 2 [2]: 0 (0) | Pruritus, Grade 3+ [2]: 0 (0) | Rash papular, All [2]: 1 (8.3) | Rash papular, Grade 1 2 [2]: 1 (8.3) | Rash papular, Grade 3+ [2]: 0 (0) | Rash, All [2]: 1 (8.3) | Rash, Grade 1 2 [2]: 1 (8.3) | Rash, Grade 3+ [2]: 0 (0) | Scab, All [2]: 1 (8.3) | Scab, Grade 1 2 [2]: 1 (8.3) | Scab, Grade 3+ [2]: 0 (0) | Skin disorder, All [2]: 0 (0) | Skin disorder, Grade 1 2 [2]: 0 (0) | Skin disorder, Grade 3+ [2]: 0 (0) | Skin lesion, All [2]: 1 (8.3) | Skin lesion, Grade 1 2 [2]: 1 (8.3) | Skin lesion, Grade 3+ [2]: 0 (0) | Swelling face, All [2]: 1 (8.3) | Swelling face, Grade 1 2 [2]: 1 (8.3) | Swelling face, Grade 3+ [2]: 0 (0) | Hypertension, All [3]: 1 (8.3) | Hypertension, Grade 1 2 [3]: 0 (0) | Hypertension, Grade 3+ [3]: 1 (8.3) | Hypotension, All [3]: 1 (8.3) | Hypotension, Grade 1 2 [3]: 0 (0) | Hypotension, Grade 3+ [3]: 1 (8.3) | Lymphoedema, All [3]: 1 (8.3) | Lymphoedema, Grade 1 2 [3]: 1 (8.3) | Lymphoedema, Grade 3+ [3]: 0 (0) | Peripheral venous disease, All [3]: 1 (8.3) | Peripheral venous disease, Grade 1 2 [3]: 1 (8.3) | Peripheral venous disease, Grade 3+ [3]: 0 (0) | Serious AEs related to TP-0903 (all treated patients, TP-0903 + decitabine): no patients had serious AEs related to TP-0903; also recorded: no serious AEs attributable to TP-0903 | Diarrhea, grade 1 to 2 treatment-related AE (any grade) [4]: 33% | Fatigue, grade 3+ treatment-related AE [4]: 6% | Nausea, grade 1 to 2 treatment-related AE (any grade) [4]: 47% | Neutropenia, grade 3+ treatment-related AE [4]: 33% | Stomatitis, grade 3+ treatment-related AE [4]: 6% | Thrombocytopenia, grade 3+ treatment-related AE [4]: 27% | Patients with treatment-related grade 3+ AEs [4]: 47% | Anemia, treatment-related AE grade ≥3 [5]: 2 (13.3) no. (%) | Decreased appetite, treatment-related AE grade ≥3 [5]: 0 (0) no. (%) | Febrile neutropenia, treatment-related AE grade ≥3 [5]: 0 (0) no. (%) | Leukopenia, treatment-related AE grade ≥3 [5]: 3 (20) no. (%) | Lymphocyte count decreased, treatment-related AE grade ≥3 [5]: 0 (0) no. (%) | Neutropenia, treatment-related AE grade ≥3 [5]: 5 (33.3) no. (%) | Pneumonia, treatment-related AE grade ≥3 [5]: 0 (0) no. (%) | Thrombocytopenia, treatment-related AE grade ≥3 [5]: 4 (26.7) no. (%) | Decreased appetite, grade 1 to 2 treatment-related AE (any grade) [6]: 25% | Decreased appetite, grade 3+ treatment-related AE [6]: 8% | Diarrhea, grade 1 to 2 treatment-related AE (any grade) [6]: 25% | Febrile neutropenia, grade 3+ treatment-related AE [6]: 33% | Leukopenia, grade 3+ treatment-related AE [6]: 33% | Lymphocyte count decrease, grade 3+ treatment-related AE [6]: 42% | Nausea, grade 1 to 2 treatment-related AE (any grade) [6]: 42% | Neutropenia, grade 3+ treatment-related AE [6]: 50% | Pneumonia, grade 3+ treatment-related AE [6]: 8% | Thrombocytopenia, grade 3+ treatment-related AE [6]: 25% | Patients with treatment-related grade 3+ AEs [6]: 58% | Anemia, treatment-related AE grade ≥3 [7]: 1 (8.3) no. (%) | Decreased appetite, treatment-related AE grade ≥3 [7]: 1 (8.3) no. (%) | Fatigue, treatment-related AE grade ≥3 [7]: 0 (0) no. (%) | Febrile neutropenia, treatment-related AE grade ≥3 [7]: 4 (33.3) no. (%) | Leukopenia, treatment-related AE grade ≥3 [7]: 4 (33.3) no. (%) | Lymphocyte count decreased, treatment-related AE grade ≥3 [7]: 5 (41.7) no. (%) | Neutropenia, treatment-related AE grade ≥3 [7]: 6 (50) no. (%) | Pneumonia, treatment-related AE grade ≥3 [7]: 1 (8.3) no. (%) | Stomatitis, treatment-related AE grade ≥3 [7]: 0 (0) no. (%) | Thrombocytopenia, treatment-related AE grade ≥3 [7]: 3 (25) no. (%) | Anemia, treatment-related AE grade ≥3 [8]: 3 (11.1) no. (%) | Decreased appetite, treatment-related AE grade ≥3 [8]: 1 (3.7) no. (%) | Fatigue, treatment-related AE grade ≥3 [8]: 1 (3.7) no. (%) | Febrile neutropenia, treatment-related AE grade ≥3 [8]: 4 (14.8) no. (%) | Leukopenia, treatment-related AE grade ≥3 [8]: 7 (25.9) no. (%) | Lymphocyte count decreased, treatment-related AE grade ≥3 [8]: 5 (18.5) no. (%) | Neutropenia, treatment-related AE grade ≥3 [8]: 11 (40.7) no. (%) | Pneumonia, treatment-related AE grade ≥3 [8]: 1 (3.7) no. (%) | Stomatitis, treatment-related AE grade ≥3 [8]: 1 (3.7) no. (%) | Thrombocytopenia, treatment-related AE grade ≥3 [8]: 7 (25.9) no. (%) | Dose-limiting toxicities (DLT) (phase 1b, DL1 37 mg TP-0903 + decitabine, six evaluable patients): No DLTs were observed
